The record followed here is patent publication US20260125382A1, “COMPOUNDS FOR INHIBITING OR DEGRADING CDK2 AND/OR CDK9 AND MEDICINAL USE THEREOF” (KOREA RESEARCH INSTITUTE OF CHEMICAL TECHNOLOGY, priority 2022, published 2026).

The structures appear in SMILES notation.

What is called IC50 is the point on the concentration scale where inhibition reaches its midpoint. A higher IC50 goes with a need for much substance.

One test deals with T1, CDK9 (Homo sapiens, UniProt P50750).
T1 construct: endogenous in cells; host or cells: MDA-MB-231
Put plainly: CDK protein degradation activity (Western blotting), CDK9. The conditions noted are these: MDA-MB-231 cells, 16 hours, Western blot. It is filed as cell-based. The method in brief:
(§1)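 MDA-MB-231 cells treated 16 h with compound at 100 nM, 1 μM or 10 μM, with DMSO as control. Lysates run on SDS-PAGE and immunoblotted for CDK2, CDK9 and tubulin; band levels quantified by densitometry.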

Another test addresses T2, CDK2 (Homo sapiens, UniProt P24941).
T2 construct: endogenous in cells; host or cells: MDA-MB-231
Put plainly: CDK protein degradation activity (Western blotting), CDK2. It is filed as cell-based. The note with it: MDA-MB-231 cells, 16 hours, Western blot. The method in brief:
as §1
(In general: A western blot detects proteins with antibodies after separation by electrophoresis.)

For a further test, the target named is T3, CDK2/cyclin A (Homo sapiens, UniProt P24941).
T3 construct: purchased Eurofins Scientific
Put plainly: CDK protein inhibition, KINOMEscan (Eurofins), CDK2/cyclin A. It is filed as binding. The conditions noted are these: for IC50: Table 17, unit inferred.

T1 sequence (P50750 whole entry): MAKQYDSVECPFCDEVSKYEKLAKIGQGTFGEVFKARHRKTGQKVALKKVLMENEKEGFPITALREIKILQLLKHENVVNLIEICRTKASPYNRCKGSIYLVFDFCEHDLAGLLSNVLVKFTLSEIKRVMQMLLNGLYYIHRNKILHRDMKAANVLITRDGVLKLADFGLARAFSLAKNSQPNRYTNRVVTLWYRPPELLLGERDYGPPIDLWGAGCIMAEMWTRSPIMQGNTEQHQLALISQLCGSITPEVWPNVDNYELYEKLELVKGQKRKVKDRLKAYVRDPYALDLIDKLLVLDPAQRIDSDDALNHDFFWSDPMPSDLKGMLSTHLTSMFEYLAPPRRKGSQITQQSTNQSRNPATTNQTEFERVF

For the molecule `Cc1cccc(C(=O)N[C@H]2C[C@H](n3cnc4c(NCC5CCN(C(=O)CCCCCNC(=O)CNc6ccc7c(c6)C(=O)N([C@@H]6CCC(=O)NC6=O)C7=O)CC5)ncnc43)C2)n1` (stereo in doubt) [Compound 61, N-((1r,3r)-3-(6-(((1-(6-(2-((2-(2,6-dioxopiperidin-3-yl)-1,3-dioxoisoindolin-5-yl)amino)acetamido)hexanoyl)piperidin-4-yl)methyl)amino)-9H-purin-9-yl)cyclobutyl)-6-methylpicolinamide], at CDK9, the “Enzyme degradation CDK9 (% remaining) @ 0.1 μM” value turned out to be 80%, the “Enzyme degradation CDK9 (% remaining) @ 1 μM” value is listed as 50% and the “Enzyme degradation CDK9 (% remaining) @ 10 μM” value stood at 10%. For the same molecule, on CDK2, the “Enzyme degradation CDK2 (% remaining) @ 0.1 μM” value is given as 100%, the “Enzyme degradation CDK2 (% remaining) @ 1 μM” value stood at 100% and the “Enzyme degradation CDK2 (% remaining) @ 10 μM” value is on record as 40%. For the same molecule, the “CDK2/cyclin A inhibition (%) (at concentration of 1 μM)” value on CDK2/cyclin A amounted to 84%.

As to `Cc1cccc(C(=O)N[C@H]2C[C@H](n3cnc4c(NCC5CCN(C(=O)CCCCCNc6ccc7c(c6)C(=O)N([C@@H]6CCC(=O)NC6=O)C7=O)CC5)ncnc43)C2)n1` [Compound 65, N-((1r,3r)-3-(6-(((1-(6-((2-(2,6-dioxopiperidin-3-yl)-1,3-dioxoisoindolin-5-yl)amino)hexanoyl)piperidin-4-yl)methyl)amino)-9H-purin-9-yl)cyclobutyl)-6-methylpicolinamide], at CDK9, the “Enzyme degradation CDK9 (% remaining) @ 0.1 μM” value turned out to be 30%, the “Enzyme degradation CDK9 (% remaining) @ 1 μM” value is recorded as 10% and the “Enzyme degradation CDK9 (% remaining) @ 10 μM” value is recorded as 0%. In addition, at CDK2, the “Enzyme degradation CDK2 (% remaining) @ 0.1 μM” value is on record as 100%, the “Enzyme degradation CDK2 (% remaining) @ 1 μM” value is 50% and the “Enzyme degradation CDK2 (% remaining) @ 10 μM” value is listed as 20%. The “CDK2/cyclin A inhibition (%) (at concentration of 1 μM)” value at CDK2/cyclin A worked out at 87%.

For `Cc1cccc(C(=O)N[C@H]2C[C@H](n3cnc4c(NCC5CCN(CC6CCN(C(=O)CNc7ccc8c(c7)C(=O)N(C7CCC(=O)NC7=O)C8=O)CC6)CC5)ncnc43)C2)n1` (stereo partly drawn) [Compound 74, N-((1r,3r)-3-(6-(((1-((1-((2-(2,6-dioxopiperidin-3-yl)-1,3-dioxoisoindolin-5-yl)glycyl)piperidin-4-yl)methyl)piperidin-4-yl)methyl)amino)-9H-purin-9-yl)cyclobutyl)-6-methylpicolinamide], at CDK9, the “Enzyme degradation CDK9 (% remaining) @ 0.1 μM” value was 0/0/0%, the “Enzyme degradation CDK9 (% remaining) @ 1 μM” value is 0/0/0% and the “Enzyme degradation CDK9 (% remaining) @ 10 μM” value is 0/0/0%. Moreover, on CDK2, the “Enzyme degradation CDK2 (% remaining) @ 0.1 μM” value was found to be 30%, the “Enzyme degradation CDK2 (% remaining) @ 1 μM” value was found to be 40% and the “Enzyme degradation CDK2 (% remaining) @ 10 μM” value is given as 50%. The molecule also came in with a half-maximal inhibitory concentration (IC50) against CDK2/cyclin A above 10000 nM.

Consider `Cc1cccc(C(=O)N[C@H]2C[C@@H](n3cnc4c(Nc5ccc(N6CCN(CC7CCN(C(=O)COc8cccc9c8C(=O)N(C8CCC(=O)NC8=O)C9=O)CC7)CC6)cc5)ncnc43)C2)n1` (stereo partly drawn) [Compound 91, N-((1s,3s)-3-(6-((4-(4-((1-(2-((2-(2,6-dioxopiperidin-3-yl)-1,3-dioxoisoindolin-4-yl)oxy)acetyl)piperidin-4-yl)methyl)piperazin-1-yl)phenyl)amino)-9H-purin-9-yl)cyclobutyl)-6-methylpicolinamide], for which, on CDK9, the “Enzyme degradation CDK9 (% remaining) @ 0.1 μM” value is listed as 0/0/0%, the “Enzyme degradation CDK9 (% remaining) @ 1 μM” value is listed as 0/0/0% and the “Enzyme degradation CDK9 (% remaining) @ 10 μM” value was 0/0/0%. Moreover, on CDK2, the “Enzyme degradation CDK2 (% remaining) @ 0.1 μM” value is given as 0/0/0%, the “Enzyme degradation CDK2 (% remaining) @ 1 μM” value is 0/0/0% and the “Enzyme degradation CDK2 (% remaining) @ 10 μM” value is 0/0/0%. The IC50 against CDK2/cyclin A turned out to be 613 nM.

For `Cc1cccc(C(=O)N[C@H]2C[C@@H](n3cnc4c(NCCC5CCN(CC6CCN(C(=O)CNc7ccc8c(c7)C(=O)N(C7CCC(=O)NC7=O)C8=O)CC6)CC5)ncnc43)C2)n1` (stereo partly drawn) [Compound 125, N-((1s,3s)-3-(6-((2-(1-((1-((2-(2,6-dioxopiperidin-3-yl)-1,3-dioxoisoindolin-5-yl)glycyl)piperidin-4-yl)methyl)piperidin-4-yl)ethyl)amino)-9H-purin-9-yl)cyclobutyl)-6-methylpicolinamide], at CDK9, the “Enzyme degradation CDK9 (% remaining) @ 0.1 μM” value is given as 0/0/0%, the “Enzyme degradation CDK9 (% remaining) @ 1 μM” value is reported as 0/0/0% and the “Enzyme degradation CDK9 (% remaining) @ 10 μM” value is given as 0/0/0%. For the same molecule, at CDK2, the “Enzyme degradation CDK2 (% remaining) @ 0.1 μM” value was 30%, the “Enzyme degradation CDK2 (% remaining) @ 1 μM” value stood at 10% and the “Enzyme degradation CDK2 (% remaining) @ 10 μM” value is 20%. In addition, inhibition at CDK2/cyclin A was half-maximal at 1300 nM (IC50).

Turning to `O=C1CCC(N2C(=O)c3cccc(NCC(=O)N4CCC(CN5CCN(c6ccc(Nc7ncnc8c7ncn8[C@H]7C[C@@H](NC(=O)Cc8ccccc8)C7)cc6)CC5)CC4)c3C2=O)C(=O)N1` (stereo partly drawn) [Compound 176, N-((1s,3s)-3-(6-((4-(4-((1-((2-(2,6-dioxopiperidin-3-yl)-1,3-dioxoisoindolin-4-yl)glycyl)piperidin-4-yl)methyl)piperazin-1-yl)phenyl)amino)-9H-purin-9-yl)cyclobutyl)-2-phenylacetamide], on CDK9, the “Enzyme degradation CDK9 (% remaining) @ 0.1 μM” value was 0/0/0%, the “Enzyme degradation CDK9 (% remaining) @ 1 μM” value is reported as 0/0/0% and the “Enzyme degradation CDK9 (% remaining) @ 10 μM” value is given as 0/0/0%. Also, at CDK2, the “Enzyme degradation CDK2 (% remaining) @ 0.1 μM” value was 0/0/0%, the “Enzyme degradation CDK2 (% remaining) @ 1 μM” value is 0/0/0% and the “Enzyme degradation CDK2 (% remaining) @ 10 μM” value is on record as 0/0/0%. Further, on CDK2/cyclin A, the IC50 was 439 nM.
